ChEMBL document CHEMBL4257548, “Phenothiazine antioxidants increase mitochondrial biogenesis and frataxin levels in Friedreich's ataxia cells” (Medchemcomm, 2018)
The source made the active and inactive calls. The rule behind the calls is not given here.

Assays:
GM15850 [1] = assay: Effect on frataxin expression in human GM15850 cells at 250 nM after 24 hrs by ELISA relative to control; assay type: functional
GM15850 [2] = assay: Restoration of total aconitase activity in human GM15850 cells at 50 nM after 5 days by colorimetric method relative to control; assay type: functional
GM15850 [3] = assay: Induction of mitochondrial biogenesis in human GM15850 cells assessed as ratio of COX1 to SDH-A protein levels at 50 after 24 hrs by ELISA relative to control; assay type: functional
GM16216 [4] = assay: Induction of mitochondrial biogenesis in human GM16216 cells assessed as ratio of COX1 to SDH-A protein levels at 50 after 48 hrs by ELISA relative to control; assay type: functional
GM15850 [5] = assay: Effect on frataxin expression in human GM15850 cells at 250 nM after 48 hrs by ELISA relative to control; assay type: functional
GM16216 [6] = assay: Induction of mitochondrial biogenesis in human GM16216 cells assessed as ratio of COX1 to SDH-A protein levels at 50 after 24 hrs by ELISA relative to control; assay type: functional
GM16216 [7] = assay: Effect on frataxin expression in human GM16216 cells at 250 nM after 24 hrs by ELISA relative to control; assay type: functional
GM16216 [8] = assay: Restoration of total aconitase activity in human GM16216 cells at 250 nM after 5 days by colorimetric method relative to control; assay type: functional
GM15850 [9] = assay: Restoration of total aconitase activity in human GM15850 cells at 250 nM after 5 days by colorimetric method relative to control; assay type: functional
GM16216 [10] = assay: Restoration of total aconitase activity in human GM16216 cells at 50 nM after 5 days by colorimetric method relative to control; assay type: functional
GM16216 [11] = assay: Induction of mitochondrial biogenesis in human GM16216 cells assessed as ratio of COX1 to SDH-A protein levels at 250 after 48 hrs by ELISA relative to control; assay type: functional
GM16216 [12] = assay: Induction of mitochondrial biogenesis in human GM16216 cells assessed as ratio of COX1 to SDH-A protein levels at 250 after 24 hrs by ELISA relative to control; assay type: functional
GM16216 [13] = assay: Effect on frataxin expression in human GM16216 cells at 50 nM after 24 hrs by ELISA relative to control; assay type: functional
GM16216 [14] = assay: Effect on frataxin expression in human GM16216 cells at 250 nM after 48 hrs by ELISA relative to control; assay type: functional
GM15850 [15] = assay: Induction of mitochondrial biogenesis in human GM15850 cells assessed as ratio of COX1 to SDH-A protein levels at 250 after 24 hrs by ELISA relative to control; assay type: functional
GM15850 [16] = assay: Effect on frataxin expression in human GM15850 cells at 50 nM after 24 hrs by ELISA relative to control; assay type: functional
GM15850 [17] = assay: Effect on frataxin expression in human GM15850 cells at 50 nM after 48 hrs by ELISA relative to control; assay type: functional
GM15850 [18] = assay: Induction of mitochondrial biogenesis in human GM15850 cells assessed as ratio of COX1 to SDH-A protein levels at 250 after 48 hrs by ELISA relative to control; assay type: functional
GM15850 [19] = assay: Induction of mitochondrial biogenesis in human GM15850 cells assessed as ratio of COX1 to SDH-A protein levels at 50 after 48 hrs by ELISA relative to control; assay type: functional
GM16216 [20] = assay: Effect on frataxin expression in human GM16216 cells at 50 nM after 48 hrs by ELISA relative to control; assay type: functional
GM15850 [21] = assay: Effect on mitochondrial membrane potential in human GM15850 cells assessed as intact mitochondrial membrane at 0.25 uM after 16 hrs by JC1 staining based flow cytometry (reference value: 87%); assay type: functional
GM16216 [22] = assay: Effect on mitochondrial membrane potential in human GM16216 cells assessed as loss of mitochondrial membrane potential at 0.25 uM after 16 hrs by JC1 staining based flow cytometry (reference value: 13%); assay type: functional
GM15850 [23] = assay: Effect on ATP production in human GM15850 cells at 0.1 uM after 24 hrs by Vialight reagent based luminescence assay; assay type: functional, cell-based
GM16216 [24] = assay: Inhibition of ATP production in human GM16216 cells after 24 hrs by Vialight reagent based luminescence assay; assay type: functional, cell-based
GM16216 [25] = assay: Cytotoxicity against human GM16216 cells at 2.5 uM after 24 to 48 hrs by live/dead staining-based flow cytometry; assay type: cell-based; settings: gm16216, 2.5 µM
GM15850 [26] = assay: Inhibition of ATP production in human GM15850 cells after 24 hrs by Vialight reagent based luminescence assay; assay type: functional, cell-based
GM16216 [27] = assay: Effect on ATP production in human GM16216 cells at 0.1 uM after 24 hrs by Vialight reagent based luminescence assay; assay type: functional, cell-based
GM16216 [28] = assay: Effect on mitochondrial membrane potential in human GM16216 cells assessed as intact mitochondrial membrane at 0.25 uM after 16 hrs by JC1 staining based flow cytometry (reference value: 87%); assay type: functional
GM15850 [29] = assay: Cytoprotection against DEM-induced toxicity in human GM15850 cells assessed as increase in cell viability at 0.5 to 2.5 uM pretreated for 16 hrs followed by DEM addition and measured after 5 hrs by live/dead staining based flow cytometry; assay type: functional
GM15850 [30] = assay: Effect on mitochondrial membrane potential in human GM15850 cells assessed as loss of mitochondrial membrane potential at 0.25 uM after 16 hrs by JC1 staining based flow cytometry (reference value: 13%); assay type: functional
GM15850 [31] = assay: Cytotoxicity against human GM15850 cells at 2.5 uM after 24 to 48 hrs by live/dead staining-based flow cytometry; assay type: cell-based; settings: gm15850, 2.5 µM
GM16216 [32] = assay: Cytoprotection against DEM-induced toxicity in human GM16216 cells assessed as increase in cell viability at 0.5 to 2.5 uM pretreated for 16 hrs followed by DEM addition and measured after 5 hrs by live/dead staining based flow cytometry; assay type: functional
GM16216 [33] = assay: Increase in frataxin expression in human GM16216 cells at 50 nM after 24 to 48 hrs by ELISA; assay type: functional, cell-based
GM15850 [34] = assay: Increase in frataxin expression in human GM15850 cells at 50 nM after 24 to 48 hrs by ELISA; assay type: functional, cell-based
GM16216 [35] = assay: Increase in frataxin expression in human GM16216 cells at 250 nM after 24 to 48 hrs by ELISA; assay type: functional, cell-based
GM15850 [36] = assay: Increase in frataxin expression in human GM15850 cells at 250 nM after 24 to 48 hrs by ELISA; assay type: functional, cell-based
GM15850 [37] = assay: Increase in frataxin expression in human GM15850 cells at 50 to 250 nM after 24 to 48 hrs by ELISA; assay type: functional, cell-based
GM15850 [38] = assay: Induction of mitochondrial biogenesis in human GM15850 cells assessed as increase in ratio of COX1 to SDH-A protein levels at 50 to 250 nM after 24 to 48 hrs by ELISA; assay type: functional, cell-based
GM16216 [39] = assay: Induction of mitochondrial biogenesis in human GM16216 cells assessed as increase in ratio of COX1 to SDH-A protein levels at 50 to 250 nM after 24 to 48 hrs by ELISA; assay type: functional, cell-based
GM16216 [40] = assay: Increase in frataxin expression in human GM16216 cells at 50 to 250 nM after 24 to 48 hrs by ELISA; assay type: functional, cell-based

## CCCCCCCCCCCCCCCN(CCCC)c1ccc2nc3ccc(=O)cc-3sc2c1
GM15850 [1]
  Activity: 123%
GM15850 [2]
  Activity: 115%
GM15850 [3]
  Activity: 117%
GM16216 [4]
  Activity: 123%
GM15850 [5]
  Activity: 127%
GM16216 [6]
  Activity: 117%
GM16216 [7]
  Activity: 123%
GM16216 [8]
  Activity: 116%
GM15850 [9]
  Activity: 116%
GM16216 [10]
  Activity: 115%
GM16216 [11]
  Activity: 137%
GM16216 [12]
  Activity: 127%
GM16216 [13]
  Activity: 116%
GM16216 [14]
  Activity: 127%
GM15850 [15]
  Activity: 127%
GM15850 [16]
  Activity: 116%
GM15850 [17]
  Activity: 121%
GM15850 [18]
  Activity: 137%
GM15850 [19]
  Activity: 123%
GM16216 [20]
  Activity: 121%

## CCCCCCCCCCCCCc1cc2nc3ccc(N(C)C)cc3sc-2cc1=[N+](C)C.[I-]
GM15850 [21]
  Activity: 82%
GM16216 [22]
  Activity: 18%
GM15850 [23]
  Activity: inactive
GM16216 [24]
  inhibition: Dose-dependent effect
GM16216 [25]
  Activity: Toxic
GM15850 [26]
  inhibition: Dose-dependent effect
GM16216 [27]
  Activity: inactive
GM16216 [28]
  Activity: 82%
GM15850 [29]
  Activity: Active
GM15850 [30]
  Activity: 18%
GM15850 [31]
  Activity: Toxic
GM16216 [32]
  Activity: Active

## CN(C)c1ccc2nc3ccc(N(C)C)cc3[s+]c2c1.[Cl-] [METHYLENE BLUE ANHYDROUS]
GM15850 [21]
  Activity: 83%
GM16216 [22]
  Activity: 17%
GM16216 [28]
  Activity: 83%
GM15850 [30]
  Activity: 17%

## CCCCCCCCCCCCCCCN(C)c1ccc2nc3ccc(=O)cc-3sc2c1
GM15850 [1]
  Activity: 118%
GM15850 [2]
  Activity: 116%
GM15850 [3]
  Activity: 120%
GM16216 [4]
  Activity: 128%
GM15850 [5]
  Activity: 127%
GM16216 [6]
  Activity: 120%
GM16216 [7]
  Activity: 118%
GM16216 [8]
  Activity: 123%
GM15850 [9]
  Activity: 123%
GM16216 [10]
  Activity: 116%
GM16216 [11]
  Activity: 137%
GM16216 [12]
  Activity: 127%
GM16216 [13]
  Activity: 114%
GM16216 [14]
  Activity: 127%
GM15850 [15]
  Activity: 127%
GM15850 [16]
  Activity: 114%
GM15850 [17]
  Activity: 120%
GM15850 [18]
  Activity: 137%
GM15850 [19]
  Activity: 128%
GM16216 [20]
  Activity: 120%

## CCCCCCCCCCCc1cc2nc3ccc(N(C)C)cc3sc-2cc1=[N+](C)C.[I-]
GM15850 [21]
  Activity: 82%
GM16216 [22]
  Activity: 18%
GM15850 [23]
  Activity: inactive
GM16216 [24]
  inhibition: Dose-dependent effect
GM16216 [25]
  Activity: Toxic
GM15850 [26]
  inhibition: Dose-dependent effect
GM16216 [33]
  Activity: Active
GM16216 [27]
  Activity: inactive
GM16216 [28]
  Activity: 82%
GM15850 [34]
  Activity: Active
GM16216 [35]
  Activity: inactive
GM15850 [30]
  Activity: 18%
GM15850 [31]
  Activity: Toxic
GM15850 [36]
  Activity: inactive

## CCCCCc1cc2nc3ccc(N(C)C)cc3sc-2cc1=[N+](C)C.[I-]
GM15850 [21]
  Activity: 81%
GM16216 [22]
  Activity: 19%
GM15850 [23]
  Activity: inactive
GM16216 [24]
  inhibition: Dose-dependent effect
GM16216 [25]
  Activity: Toxic
GM15850 [26]
  inhibition: Dose-dependent effect
GM16216 [27]
  Activity: inactive
GM16216 [28]
  Activity: 81%
GM15850 [29]
  Activity: Active
GM15850 [30]
  Activity: 19%
GM15850 [31]
  Activity: Toxic
GM16216 [32]
  Activity: Active

## CN(C)c1ccc2nc3ccc(=[N+](C)C)cc-3sc2c1
GM15850 [37]
  Activity: Active
GM15850 [23]
  Activity: inactive
GM16216 [24]
  inhibition: Dose-dependent effect
GM15850 [26]
  inhibition: Dose-dependent effect
GM16216 [27]
  Activity: inactive
GM15850 [38]
  Activity: Active
GM16216 [39]
  Activity: Active
GM15850 [29]
  Activity: Active
GM16216 [40]
  Activity: Active
GM16216 [32]
  Activity: Active
